The subject of the first test is Escherichia coli strain ATCC25922. Description: standard microdilution assay to determine minimum inhibitory concentrations (MICs). The class given is cell-based. The following applies: Escherichia coli strain ATCC25922, microdilution. In a few lines:
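MICs come from CLSI-guided microdilution in 100 μl, run alongside reference-strain performance standards. Values appear as "+" or "−" relative to 16 micrograms/ml, with "N/A" marking missing data.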
Background: Broth dilution looks for growth in wells or tubes with falling amounts of substance.
Turning to `CC(CCCc1cc(Cl)c(F)c(-c2cc3cn(-c4ccc(CNCCCNC(=N)N)cc4)c(=O)nc3[nH]2)c1)N(C)C` (stereo not shown) [Compound 298], the “E. coli ATCC25922 MIC” value is “+ (a “+” indicates that the compound has an MIC value of 16 micrograms/ml or less)”.
Regarding `CC(N)CCCc1cc(OC(F)F)c(F)c(-c2cc3cn(-c4ccc(C(C)NCCCNC(=N)N)cc4)c(=O)nc3[nH]2)c1` (stereo not shown) [Compound 299], the “E. coli ATCC25922 MIC” value is reported as “+ (a “+” indicates that the compound has an MIC value of 16 micrograms/ml or less)”.
`CCc1cc(CCCC(C)N)cc(-c2cc3cn(-c4ccc(C(C)NCCCNC(=N)N)cc4)c(=O)nc3[nH]2)c1F` (stereo not shown) [Compound 300]: the “E. coli ATCC25922 MIC” value is “+ (a “+” indicates that the compound has an MIC value of 16 micrograms/ml or less)”.
Still for that read-out and setting: next, `CCc1cc(CCCC(C)N)cc(-c2cc3cn(-c4ccc(CNCCCNC(=N)N)cc4)c(=O)nc3[nH]2)c1F` (stereo not shown) [Compound 301]: “+ (a “+” indicates that the compound has an MIC value of 16 micrograms/ml or less)”; `C[C@@H](CCCc1cc(SC(F)(F)F)cc(-c2cc3cn(-c4ccc(CNCCCNC(=N)N)cc4)c(=O)nc3[nH]2)c1)N(C)C` [Compound 302]: “+ (a “+” indicates that the compound has an MIC value of 16 micrograms/ml or less)”; `CC(C)(N)CCCc1cc(SC(F)(F)F)cc(-c2cc3cn(-c4ccc(CNCCCNC(=N)N)cc4)c(=O)nc3[nH]2)c1` [Compound 303]: “+ (a “+” indicates that the compound has an MIC value of 16 micrograms/ml or less)”.
For `C[C@H](NCCCNC(=N)N)c1ccc(-n2cc3cc(-c4cc(CCCC(C)(C)N)cc(SC(F)(F)F)c4)[nH]c3nc2=O)cc1` [Compound 304], the “E. coli ATCC25922 MIC” value is “+ (a “+” indicates that the compound has an MIC value of 16 micrograms/ml or less)”.
For `C[C@H](N)CCCc1cc(SC(F)F)cc(-c2cc3cn(-c4ccc(CNCCCNC(=N)N)cc4)c(=O)nc3[nH]2)c1` [Compound 305], the “E. coli ATCC25922 MIC” value is given as “+ (a “+” indicates that the compound has an MIC value of 16 micrograms/ml or less)”.
For the molecule `C[C@H](N)CCCc1cc(CC(F)(F)F)cc(-c2cc3cn(-c4ccc(CNCCCNC(=N)N)cc4)c(=O)nc3[nH]2)c1` [Compound 306], the “E. coli ATCC25922 MIC” value is “+ (a “+” indicates that the compound has an MIC value of 16 micrograms/ml or less)”.
On to `N=C(N)NCCCNCc1ccc(-n2cc3cc(-c4cc(CCC5(CN)CC5)cc(SC(F)(F)F)c4)[nH]c3nc2=O)cc1` [Compound 307], for which the “E. coli ATCC25922 MIC” value is recorded as “+ (a “+” indicates that the compound has an MIC value of 16 micrograms/ml or less)”.
As for `C[C@H](N)CCCc1cc(SC(F)F)cc(-c2cc3cn(-c4ccc([C@H](C)NCCCNC(=N)N)cc4)c(=O)nc3[nH]2)c1` [Compound 308], the “E. coli ATCC25922 MIC” value is “+ (a “+” indicates that the compound has an MIC value of 16 micrograms/ml or less)”.
As for `C[C@@H](CCCc1cc(-c2cc3cn(-c4ccc(CNCCCNC(=N)N)cc4)c(=O)nc3[nH]2)cc(C(F)(F)F)c1)N(C)C` [Compound 309], the “E. coli ATCC25922 MIC” value is given as “+ (a “+” indicates that the compound has an MIC value of 16 micrograms/ml or less)”.
With `C[C@H](NCCCNC(=N)N)c1ccc(-n2cc3cc(-c4cc(CCC5(CN)CC5)cc(SC(F)(F)F)c4)[nH]c3nc2=O)cc1` [Compound 310], the “E. coli ATCC25922 MIC” value is recorded as “+ (a “+” indicates that the compound has an MIC value of 16 micrograms/ml or less)”.
As for `C[C@H](N)COCc1cc(OC(F)(F)F)cc(-c2cc3cn(-c4ccc(CNCCCNC(=N)N)cc4)c(=O)nc3[nH]2)c1` [Compound 311], the “E. coli ATCC25922 MIC” value is recorded as “+ (a “+” indicates that the compound has an MIC value of 16 micrograms/ml or less)”.
Turning to `C[C@H](N)C/C=C/c1cc(Cl)c(F)c(-c2cc3cn(-c4ccc(CNCCCNC(=N)N)cc4)c(=O)nc3[nH]2)c1` [Compound 312], the “E. coli ATCC25922 MIC” value is listed as “+ (a “+” indicates that the compound has an MIC value of 16 micrograms/ml or less)”.
Still for that read-out and setting: as for `Cc1cc(CCC[C@H](C)N)cc(-c2cc3cn(-c4ccc(CNCCCNC(=N)N)cc4)c(=O)nc3[nH]2)c1Cl` [Compound 313], the entry is “+ (a “+” indicates that the compound has an MIC value of 16 micrograms/ml or less)”; as for `C[C@@H](CN)OCc1cc(-c2cc3cn(-c4ccc(CNCCCNC(=N)N)cc4)c(=O)nc3[nH]2)cc(C(F)(F)F)c1` [Compound 314], “+ (a “+” indicates that the compound has an MIC value of 16 micrograms/ml or less)”.
`C[C@H](NCCCNC(=N)N)c1ccc(-n2cc3cc(-c4cc(CO[C@@H](C)CN)cc(C(F)(F)F)c4)[nH]c3nc2=O)cc1` [Compound 315]: the “E. coli ATCC25922 MIC” value was “+ (a “+” indicates that the compound has an MIC value of 16 micrograms/ml or less)”.
For `C[C@H](N)CCCc1cc(OC(F)(F)F)c(F)c(-c2cc3cn(-c4ccc([C@H](C)NCCCNC(=N)N)cc4)c(=O)nc3[nH]2)c1` [Compound 316], the “E. coli ATCC25922 MIC” value is “+ (a “+” indicates that the compound has an MIC value of 16 micrograms/ml or less)”.
On the same count and under the same terms, next, `CC(C)(N)CCCc1cc(-c2cc3cn(-c4ccc(CNCCCNC(=N)N)cc4)c(=O)nc3[nH]2)cc(C(F)(F)F)c1` [Compound 317]: “+ (a “+” indicates that the compound has an MIC value of 16 micrograms/ml or less)”.
For the molecule `C[C@H](NCCCNC(=N)N)c1ccc(-n2cc3cc(-c4cc(CCCC(C)(C)N)cc(C(F)(F)F)c4)[nH]c3nc2=O)cc1` [Compound 318], the “E. coli ATCC25922 MIC” value is listed as “+ (a “+” indicates that the compound has an MIC value of 16 micrograms/ml or less)”.
The same measure, in the same setting: next, `N=C(N)NCCCNCc1ccc(-n2cc3cc(-c4cc(CCC5(CN)CC5)cc(C(F)(F)F)c4)[nH]c3nc2=O)cc1` [Compound 319]: “+ (a “+” indicates that the compound has an MIC value of 16 micrograms/ml or less)”.
Consider `C[C@H](NCCCNC(=N)N)c1ccc(-n2cc3cc(-c4cc(CCC5(CN)CC5)cc(Cl)c4F)[nH]c3nc2=O)cc1` [Compound 320], for which the “E. coli ATCC25922 MIC” value was “+ (a “+” indicates that the compound has an MIC value of 16 micrograms/ml or less)”.
On the same count and under the same terms, next, `C[C@H](N)CCCc1cc(Cl)c(OC(F)(F)F)c(-c2cc3cn(-c4ccc(CNCCCNC(=N)N)cc4)c(=O)nc3[nH]2)c1` [Compound 321]: “+ (a “+” indicates that the compound has an MIC value of 16 micrograms/ml or less)”; `C[C@H](N)COCc1cc(-c2cc3cn(-c4ccc([C@H](C)NCCCNC(=N)N)cc4)c(=O)nc3[nH]2)cc(C(F)(F)F)c1` [Compound 322]: “+ (a “+” indicates that the compound has an MIC value of 16 micrograms/ml or less)”; `C[C@H](N)COCc1cc(-c2cc3cn(-c4ccc(CNCCCNC(=N)N)cc4)c(=O)nc3[nH]2)cc(C(F)(F)F)c1` [Compound 323]: “+ (a “+” indicates that the compound has an MIC value of 16 micrograms/ml or less)”.
On the same count and under the same terms, as for `N=C(N)NCCCNCc1ccc(-n2cc3cc(-c4cc(CC5CC(N)C5)cc(C(F)(F)F)c4)[nH]c3nc2=O)cc1` (stereo not shown) [Compound 324], the entry is “+ (a “+” indicates that the compound has an MIC value of 16 micrograms/ml or less)”; as for `C[C@H](NCCCNC(=N)N)c1ccc(-n2cc3cc(-c4cc(CC5CC(N)C5)cc(C(F)(F)F)c4)[nH]c3nc2=O)cc1` (stereo partly shown) [Compound 325], “+ (a “+” indicates that the compound has an MIC value of 16 micrograms/ml or less)”; as for `C[C@@H](CN)OCc1cc(SC(F)(F)F)cc(-c2cc3cn(-c4ccc(CNCCCNC(=N)N)cc4)c(=O)nc3[nH]2)c1` [Compound 326], “+ (a “+” indicates that the compound has an MIC value of 16 micrograms/ml or less)”.
On to `C[C@H](NCCCNC(=N)N)c1ccc(-n2cc3cc(-c4cc(CO[C@@H](C)CN)cc(SC(F)(F)F)c4)[nH]c3nc2=O)cc1` [Compound 327], for which the “E. coli ATCC25922 MIC” value is recorded as “+ (a “+” indicates that the compound has an MIC value of 16 micrograms/ml or less)”.

Staying with this test, now noted: Escherichia coli strain ATCC25922, standard microdilution assay.
On to `N=C(N)NCCCNCc1ccc(-n2cc3cc(-c4cc(CC5CC(N)C5)cc(Cl)c4F)[nH]c3nc2=O)cc1` (stereo not shown) [Compound 333], for which the “E. coli ATCC25922 MIC” value is given as “+ (a “+” indicates that the compound has an MIC value of 16 micrograms/ml or less)”.
Same read-out and setting: next, `C[C@H](CCNC(=N)N)NCc1ccc(-n2cc3cc(-c4cc(CC5CC(N)C5)cc(Cl)c4F)[nH]c3nc2=O)cc1` (stereo partly shown) [Compound 334]: “+ (a “+” indicates that the compound has an MIC value of 16 micrograms/ml or less)”; `CC(C)(N)CCCc1cc(SC(F)(F)F)cc(-c2cc3cn(-c4ccc(CN)cc4)c(=O)nc3[nH]2)c1` [Compound 335]: “+ (a “+” indicates that the compound has an MIC value of 16 micrograms/ml or less)”; `CC(CN)SCc1cc(SC(F)(F)F)cc(-c2cc3cn(-c4ccc(CNCCCNC(=N)N)cc4)c(=O)nc3[nH]2)c1` (stereo not shown) [Compound 336]: “+ (a “+” indicates that the compound has an MIC value of 16 micrograms/ml or less)”.
Consider `CC(CN)SCc1cc(SC(F)(F)F)cc(-c2cc3cn(-c4ccc(C(C)NCCCNC(=N)N)cc4)c(=O)nc3[nH]2)c1` (stereo not shown) [Compound 337], for which the “E. coli ATCC25922 MIC” value is given as “+ (a “+” indicates that the compound has an MIC value of 16 micrograms/ml or less)”.
On the same count and under the same terms, next, `CN(CCCNC(=N)N)Cc1ccc(-n2cc3cc(-c4cc(CCCCN)cc(C(F)(F)F)c4)[nH]c3nc2=O)cc1` [Compound 338]: “+ (a “+” indicates that the compound has an MIC value of 16 micrograms/ml or less)”; `C[C@H](N)CCCc1cc(-c2cc3cn(-c4ccc(CN(C)CCCNC(=N)N)cc4)c(=O)nc3[nH]2)cc(C(F)(F)F)c1` [Compound 339]: “+ (a “+” indicates that the compound has an MIC value of 16 micrograms/ml or less)”.
Consider `CC(N)CCCc1cc(CC(F)(F)F)cc(-c2cc3cn(-c4ccc(C(C)NCCCNC(=N)N)cc4)c(=O)nc3[nH]2)c1` (stereo not shown) [Compound 340], for which the “E. coli ATCC25922 MIC” value is recorded as “+ (a “+” indicates that the compound has an MIC value of 16 micrograms/ml or less)”.
With `CC[C@H](N)CCCc1cc(Cl)c(F)c(-c2cc3cn(-c4ccc(CNCCCNC(=N)N)cc4)c(=O)nc3[nH]2)c1` [Compound 341], the “E. coli ATCC25922 MIC” value is “+ (a “+” indicates that the compound has an MIC value of 16 micrograms/ml or less)”.
The same measure, in the same setting: as for `N=C(N)NCCCNCc1ccc(-n2cc3cc(-c4cc(CCC[C@@H](N)CO)cc(Cl)c4F)[nH]c3nc2=O)cc1` [Compound 342], the entry is “+ (a “+” indicates that the compound has an MIC value of 16 micrograms/ml or less)”.
